Laboratory results reported in ChEMBL document CHEMBL1201862, “PubChem BioAssay data set” (2004).
Activity calls are given as the source filed them.

How the values were obtained:
[1] = target: T1, Peroxisome proliferator-activated receptor gamma (Homo sapiens, UniProt P37231); test: PPARg partial agonists, dose response, cell-based, luminescence, assay provider (AID 504447); assay type: functional
T1 sequence (P37231 whole entry): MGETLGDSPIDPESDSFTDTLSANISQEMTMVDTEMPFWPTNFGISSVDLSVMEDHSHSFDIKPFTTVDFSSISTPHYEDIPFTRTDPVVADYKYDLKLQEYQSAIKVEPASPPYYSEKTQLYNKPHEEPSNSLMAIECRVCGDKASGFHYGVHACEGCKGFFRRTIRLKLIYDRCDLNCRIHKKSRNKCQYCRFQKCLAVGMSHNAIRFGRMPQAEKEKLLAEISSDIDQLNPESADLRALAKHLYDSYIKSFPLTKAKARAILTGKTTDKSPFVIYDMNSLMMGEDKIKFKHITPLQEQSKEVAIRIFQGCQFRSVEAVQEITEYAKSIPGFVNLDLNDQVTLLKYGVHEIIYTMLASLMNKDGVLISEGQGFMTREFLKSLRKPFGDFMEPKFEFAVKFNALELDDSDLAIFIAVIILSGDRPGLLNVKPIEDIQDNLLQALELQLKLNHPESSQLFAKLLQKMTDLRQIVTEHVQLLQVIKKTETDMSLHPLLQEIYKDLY

[2] = target: T1, Peroxisome proliferator-activated receptor gamma; test: PPARg ligand-binding domain binders, dose response, PPARg partial agonist project, biochemical, fluorescence polarization, PolarScreen (AID 504453)
[3] = target: T1, Peroxisome proliferator-activated receptor gamma; test: PPARg ligand-binding domain binders, dose response, PPARg partial agonist project, biochemical, TR-FRET, LanthaScreen (AID 504446)
[4] = target: Intestinal-type alkaline phosphatase (Homo sapiens, UniProt P09923); test: human intestinal alkaline phosphatase activators, dose response, biochemical, luminescence, uHTS hits (AID 463120); assay type: functional
Intestinal-type alkaline phosphatase, sequence (P09923 whole entry): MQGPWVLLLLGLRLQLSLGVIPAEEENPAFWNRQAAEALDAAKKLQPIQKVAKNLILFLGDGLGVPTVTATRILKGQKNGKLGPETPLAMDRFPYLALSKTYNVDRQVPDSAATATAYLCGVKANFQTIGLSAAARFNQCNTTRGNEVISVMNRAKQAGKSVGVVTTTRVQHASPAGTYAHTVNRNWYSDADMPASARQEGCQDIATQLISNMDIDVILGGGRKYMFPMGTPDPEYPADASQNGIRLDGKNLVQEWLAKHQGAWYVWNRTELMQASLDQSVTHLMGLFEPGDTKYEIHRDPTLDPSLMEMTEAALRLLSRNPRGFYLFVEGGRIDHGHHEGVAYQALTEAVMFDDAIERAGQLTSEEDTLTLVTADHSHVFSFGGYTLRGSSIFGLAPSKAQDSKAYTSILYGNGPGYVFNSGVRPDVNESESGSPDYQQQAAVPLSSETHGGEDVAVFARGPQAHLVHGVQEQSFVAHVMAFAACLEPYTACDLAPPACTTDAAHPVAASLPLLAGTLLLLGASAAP

Hexokinase HKDC1 = target: T2, Hexokinase HKDC1 (Homo sapiens, UniProt Q2TB90); test: HKDC1 hexokinase activators, dose response, biochemical, W721R variant (AID 504730); assay type: functional
T2 sequence (Q2TB90 whole entry): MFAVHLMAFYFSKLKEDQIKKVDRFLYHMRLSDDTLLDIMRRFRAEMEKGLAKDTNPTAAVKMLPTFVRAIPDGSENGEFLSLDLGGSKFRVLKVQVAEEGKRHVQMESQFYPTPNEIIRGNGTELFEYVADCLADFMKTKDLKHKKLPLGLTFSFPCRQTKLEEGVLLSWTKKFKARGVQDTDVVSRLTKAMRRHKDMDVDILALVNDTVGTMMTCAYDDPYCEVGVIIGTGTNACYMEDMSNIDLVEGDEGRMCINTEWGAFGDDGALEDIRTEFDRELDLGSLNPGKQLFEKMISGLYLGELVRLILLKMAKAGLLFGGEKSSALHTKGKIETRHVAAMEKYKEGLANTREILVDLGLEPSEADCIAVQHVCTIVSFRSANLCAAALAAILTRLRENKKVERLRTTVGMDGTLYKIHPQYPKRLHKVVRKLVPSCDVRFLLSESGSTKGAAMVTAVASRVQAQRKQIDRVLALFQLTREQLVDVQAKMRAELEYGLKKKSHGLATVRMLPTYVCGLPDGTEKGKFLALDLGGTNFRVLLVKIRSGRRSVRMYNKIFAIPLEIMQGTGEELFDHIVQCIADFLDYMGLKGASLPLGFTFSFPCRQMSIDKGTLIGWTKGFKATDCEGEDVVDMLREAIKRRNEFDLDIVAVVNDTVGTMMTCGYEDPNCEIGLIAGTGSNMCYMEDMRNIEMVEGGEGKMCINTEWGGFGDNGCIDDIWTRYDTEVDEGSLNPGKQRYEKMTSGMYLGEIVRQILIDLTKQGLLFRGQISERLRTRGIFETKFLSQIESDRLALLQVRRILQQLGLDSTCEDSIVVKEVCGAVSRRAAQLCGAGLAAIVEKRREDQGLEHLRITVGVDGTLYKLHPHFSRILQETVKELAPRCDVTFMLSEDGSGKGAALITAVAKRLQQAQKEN

Genome polyprotein = Genome polyprotein (dengue virus type 2, UniProt P29990); test: Dengue-2 NS5 methyltransferase inhibitors, primary screen, biochemical, confirmation dose response (AID 588689); assay type: functional
Genome polyprotein, sequence (P29990 2492-3391 limits assumed): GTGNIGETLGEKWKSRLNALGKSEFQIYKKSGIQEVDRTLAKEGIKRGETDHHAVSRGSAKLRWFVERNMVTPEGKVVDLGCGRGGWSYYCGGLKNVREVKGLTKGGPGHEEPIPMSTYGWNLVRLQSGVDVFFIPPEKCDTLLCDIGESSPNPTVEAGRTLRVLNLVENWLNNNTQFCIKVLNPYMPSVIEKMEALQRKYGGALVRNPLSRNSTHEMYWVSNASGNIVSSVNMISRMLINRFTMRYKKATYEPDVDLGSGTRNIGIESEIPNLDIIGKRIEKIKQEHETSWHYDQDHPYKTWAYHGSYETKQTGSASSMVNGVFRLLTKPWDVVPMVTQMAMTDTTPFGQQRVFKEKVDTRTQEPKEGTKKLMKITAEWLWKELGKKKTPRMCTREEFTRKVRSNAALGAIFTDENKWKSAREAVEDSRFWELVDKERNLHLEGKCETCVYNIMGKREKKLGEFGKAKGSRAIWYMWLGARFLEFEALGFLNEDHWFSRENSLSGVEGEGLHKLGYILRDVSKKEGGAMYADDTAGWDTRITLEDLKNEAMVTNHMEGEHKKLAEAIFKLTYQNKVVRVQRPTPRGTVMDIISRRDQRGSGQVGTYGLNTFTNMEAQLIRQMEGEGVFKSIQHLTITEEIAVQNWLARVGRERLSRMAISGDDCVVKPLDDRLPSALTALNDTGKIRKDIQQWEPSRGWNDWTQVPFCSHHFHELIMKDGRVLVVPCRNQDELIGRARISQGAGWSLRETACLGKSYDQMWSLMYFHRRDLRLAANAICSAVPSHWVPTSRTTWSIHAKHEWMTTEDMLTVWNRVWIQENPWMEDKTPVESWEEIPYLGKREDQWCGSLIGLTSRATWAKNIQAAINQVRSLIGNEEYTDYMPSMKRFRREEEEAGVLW

[5] = target: T3, Apoptotic protease-activating factor 1 (Homo sapiens, UniProt O14727); assay type: functional
T3 sequence (O14727 whole entry): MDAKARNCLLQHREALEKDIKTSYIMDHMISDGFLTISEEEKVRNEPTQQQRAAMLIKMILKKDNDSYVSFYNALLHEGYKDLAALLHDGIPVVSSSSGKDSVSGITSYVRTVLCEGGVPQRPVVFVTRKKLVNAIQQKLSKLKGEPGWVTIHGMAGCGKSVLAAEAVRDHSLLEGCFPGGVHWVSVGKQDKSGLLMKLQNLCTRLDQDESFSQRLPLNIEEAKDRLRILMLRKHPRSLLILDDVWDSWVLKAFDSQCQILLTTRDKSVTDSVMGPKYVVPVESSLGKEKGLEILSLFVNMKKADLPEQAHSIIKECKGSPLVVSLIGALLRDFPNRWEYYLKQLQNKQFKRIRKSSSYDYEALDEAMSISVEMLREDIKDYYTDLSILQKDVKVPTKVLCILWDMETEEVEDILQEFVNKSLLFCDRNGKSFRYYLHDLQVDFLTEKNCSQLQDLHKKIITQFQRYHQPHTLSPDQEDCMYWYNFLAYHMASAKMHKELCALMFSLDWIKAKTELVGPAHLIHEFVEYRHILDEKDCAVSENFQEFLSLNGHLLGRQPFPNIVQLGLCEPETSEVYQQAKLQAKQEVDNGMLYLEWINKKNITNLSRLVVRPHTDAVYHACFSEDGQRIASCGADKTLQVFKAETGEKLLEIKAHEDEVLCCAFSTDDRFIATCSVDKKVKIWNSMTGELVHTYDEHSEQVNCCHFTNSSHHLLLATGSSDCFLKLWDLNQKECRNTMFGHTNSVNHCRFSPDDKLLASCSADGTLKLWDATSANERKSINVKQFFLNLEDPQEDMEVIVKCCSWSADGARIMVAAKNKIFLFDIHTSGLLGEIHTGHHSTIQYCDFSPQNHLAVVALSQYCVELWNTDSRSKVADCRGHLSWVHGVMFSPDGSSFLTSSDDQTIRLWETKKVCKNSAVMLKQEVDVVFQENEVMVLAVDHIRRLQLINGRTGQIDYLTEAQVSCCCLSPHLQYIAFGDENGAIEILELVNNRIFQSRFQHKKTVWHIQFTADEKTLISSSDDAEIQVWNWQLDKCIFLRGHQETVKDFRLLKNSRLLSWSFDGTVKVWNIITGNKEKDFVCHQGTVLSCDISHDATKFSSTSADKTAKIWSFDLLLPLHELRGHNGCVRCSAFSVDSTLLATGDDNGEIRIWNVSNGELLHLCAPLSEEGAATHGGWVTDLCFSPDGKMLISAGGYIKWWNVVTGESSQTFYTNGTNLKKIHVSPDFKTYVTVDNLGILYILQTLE

Protein RecA = target: T4, Protein RecA (Mycobacterium tuberculosis, UniProt P9WHJ3); test: Fluorescence Cell-Free Homogeneous Dose Retest to Identify Inhibitors of RecA-Intein Splicing Activity. [Related pubchem assays (depositor defined):AID2097, AID2223, AID489010, AID492950]; assay type: functional
T4 sequence (P9WHJ3 whole entry): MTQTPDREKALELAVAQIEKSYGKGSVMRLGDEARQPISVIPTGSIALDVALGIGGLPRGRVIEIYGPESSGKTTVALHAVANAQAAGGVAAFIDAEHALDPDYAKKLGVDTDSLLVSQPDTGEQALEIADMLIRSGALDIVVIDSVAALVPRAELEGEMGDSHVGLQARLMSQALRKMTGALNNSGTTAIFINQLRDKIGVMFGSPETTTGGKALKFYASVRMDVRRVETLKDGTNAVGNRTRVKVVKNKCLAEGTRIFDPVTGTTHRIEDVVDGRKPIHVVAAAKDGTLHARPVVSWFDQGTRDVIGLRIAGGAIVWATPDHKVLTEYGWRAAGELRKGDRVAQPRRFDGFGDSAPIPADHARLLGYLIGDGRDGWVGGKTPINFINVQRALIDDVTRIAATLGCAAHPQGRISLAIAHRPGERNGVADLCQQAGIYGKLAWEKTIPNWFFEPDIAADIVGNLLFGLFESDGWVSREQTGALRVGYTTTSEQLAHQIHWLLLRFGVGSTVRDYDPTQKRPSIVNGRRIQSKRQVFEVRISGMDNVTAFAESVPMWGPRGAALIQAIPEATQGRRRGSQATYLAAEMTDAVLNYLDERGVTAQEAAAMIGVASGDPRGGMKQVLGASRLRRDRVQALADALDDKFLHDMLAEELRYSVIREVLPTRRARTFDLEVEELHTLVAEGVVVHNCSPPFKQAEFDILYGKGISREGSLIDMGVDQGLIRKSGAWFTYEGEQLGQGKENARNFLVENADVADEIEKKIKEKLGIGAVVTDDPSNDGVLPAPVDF

Hexokinase-1 = Hexokinase-1 (Homo sapiens, UniProt P19367); test: hexokinase 1 activators, dose response, selectivity assay for HKDC1 activator project, biochemical (AID 504762); assay type: functional
Hexokinase-1, sequence (P19367 whole entry): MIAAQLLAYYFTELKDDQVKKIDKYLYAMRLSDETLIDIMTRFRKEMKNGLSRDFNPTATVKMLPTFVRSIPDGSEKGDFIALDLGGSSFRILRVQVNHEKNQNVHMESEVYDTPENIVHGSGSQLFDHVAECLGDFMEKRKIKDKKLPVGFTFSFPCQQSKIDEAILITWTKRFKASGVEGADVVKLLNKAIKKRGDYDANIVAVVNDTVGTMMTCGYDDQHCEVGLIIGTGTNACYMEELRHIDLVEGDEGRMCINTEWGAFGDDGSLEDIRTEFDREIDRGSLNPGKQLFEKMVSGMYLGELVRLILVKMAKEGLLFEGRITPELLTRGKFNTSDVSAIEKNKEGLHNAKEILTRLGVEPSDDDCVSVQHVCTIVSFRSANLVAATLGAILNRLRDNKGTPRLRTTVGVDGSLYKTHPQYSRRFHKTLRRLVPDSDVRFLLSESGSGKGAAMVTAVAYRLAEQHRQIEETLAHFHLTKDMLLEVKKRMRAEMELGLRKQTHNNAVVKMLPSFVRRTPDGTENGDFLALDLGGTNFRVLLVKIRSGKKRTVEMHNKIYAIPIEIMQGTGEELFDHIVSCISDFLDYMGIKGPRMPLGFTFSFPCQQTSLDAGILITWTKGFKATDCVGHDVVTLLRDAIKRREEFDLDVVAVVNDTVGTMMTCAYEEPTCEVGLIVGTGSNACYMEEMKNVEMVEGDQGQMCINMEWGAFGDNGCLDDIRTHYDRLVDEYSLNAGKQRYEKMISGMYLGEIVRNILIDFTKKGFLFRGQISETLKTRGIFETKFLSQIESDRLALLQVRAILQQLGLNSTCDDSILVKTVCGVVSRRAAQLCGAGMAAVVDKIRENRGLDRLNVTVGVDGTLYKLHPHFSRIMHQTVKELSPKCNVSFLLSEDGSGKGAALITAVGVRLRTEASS

Vero = Vero cell cytotoxicity, cytotoxicity control for flavivirus capping enzyme inhibitors (AID 588742); assay type: functional; details: Chlorocebus sabaeus
Cannabinoid receptor 1 [6] = target: T5, Cannabinoid receptor 1 (Homo sapiens, UniProt P21554); test: SAR analysis of agonists of the Cannabinoid Receptor 1 using an Image-Based Assay - Set 4. [Related pubchem assays (depositor defined):AID2013, AID2026]; assay type: functional
T5 sequence (P21554 whole entry): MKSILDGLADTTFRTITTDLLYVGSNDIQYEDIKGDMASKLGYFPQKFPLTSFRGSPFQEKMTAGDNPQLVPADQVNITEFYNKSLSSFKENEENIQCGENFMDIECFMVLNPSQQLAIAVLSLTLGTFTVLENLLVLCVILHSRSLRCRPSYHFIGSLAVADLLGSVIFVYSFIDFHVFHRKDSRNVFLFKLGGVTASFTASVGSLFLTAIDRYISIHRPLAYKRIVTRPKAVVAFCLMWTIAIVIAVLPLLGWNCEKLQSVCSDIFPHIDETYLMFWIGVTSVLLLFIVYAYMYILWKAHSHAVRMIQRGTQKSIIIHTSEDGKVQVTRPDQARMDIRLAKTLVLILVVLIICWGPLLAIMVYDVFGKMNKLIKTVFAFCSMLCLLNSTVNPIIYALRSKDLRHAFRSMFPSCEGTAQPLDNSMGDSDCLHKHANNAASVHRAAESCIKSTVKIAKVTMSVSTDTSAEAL

Cannabinoid receptor 2 [7] = target: T6, Cannabinoid receptor 2 (Homo sapiens, UniProt P34972); test: SAR analysis of antagonists of the Cannabinoid Receptor 2 using an Image-Based Assay - Set 3. [Related pubchem assays (depositor defined):AID2013, AID2026]; assay type: functional
T6 sequence (P34972 whole entry): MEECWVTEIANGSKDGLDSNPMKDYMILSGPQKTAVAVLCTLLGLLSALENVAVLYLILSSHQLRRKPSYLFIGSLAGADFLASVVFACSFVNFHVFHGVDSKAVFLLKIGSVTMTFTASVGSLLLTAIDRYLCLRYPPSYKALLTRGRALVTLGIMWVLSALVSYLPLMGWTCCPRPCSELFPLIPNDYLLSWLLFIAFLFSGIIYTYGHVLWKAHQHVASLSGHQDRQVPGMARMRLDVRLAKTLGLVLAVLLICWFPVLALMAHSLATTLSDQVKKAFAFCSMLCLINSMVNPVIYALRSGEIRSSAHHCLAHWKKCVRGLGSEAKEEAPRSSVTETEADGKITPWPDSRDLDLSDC

Cannabinoid receptor 1 [8] = target: T5, Cannabinoid receptor 1; test: SAR analysis of antagonists of the Cannabinoid Receptor 1 using an Image-Based Assay - Set 4. [Related pubchem assays (depositor defined):AID2013, AID2026]; assay type: functional
[9] = target: T7, G-protein coupled receptor 35 (Homo sapiens, UniProt Q9HC97); test: SAR analysis of Antagonists of the GPR35 Receptor using an Image-Based Assay - Set 6. [Related pubchem assays (depositor defined):AID2013, AID2026]; assay type: functional
T7 sequence (Q9HC97 whole entry): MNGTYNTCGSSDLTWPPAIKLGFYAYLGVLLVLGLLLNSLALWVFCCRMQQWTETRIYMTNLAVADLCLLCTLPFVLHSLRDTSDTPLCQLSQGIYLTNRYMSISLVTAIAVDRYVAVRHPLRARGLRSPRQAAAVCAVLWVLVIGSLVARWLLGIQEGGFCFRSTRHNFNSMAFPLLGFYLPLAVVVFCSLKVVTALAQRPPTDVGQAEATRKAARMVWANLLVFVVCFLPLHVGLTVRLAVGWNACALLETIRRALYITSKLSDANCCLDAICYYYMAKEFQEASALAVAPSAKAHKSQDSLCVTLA

[10] = target: G-protein coupled receptor 55 (Homo sapiens, UniProt Q9Y2T6); test: SAR Analysis of Selective Antagonists of GPR55 using an Image-Based Assay - Set 4. [Related pubchem assays (depositor defined):AID2013, AID2026]; assay type: functional;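 also: antagonism of response to 5 µM lysophosphatidylinositol agonist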
G-protein coupled receptor 55, sequence (Q9Y2T6 whole entry): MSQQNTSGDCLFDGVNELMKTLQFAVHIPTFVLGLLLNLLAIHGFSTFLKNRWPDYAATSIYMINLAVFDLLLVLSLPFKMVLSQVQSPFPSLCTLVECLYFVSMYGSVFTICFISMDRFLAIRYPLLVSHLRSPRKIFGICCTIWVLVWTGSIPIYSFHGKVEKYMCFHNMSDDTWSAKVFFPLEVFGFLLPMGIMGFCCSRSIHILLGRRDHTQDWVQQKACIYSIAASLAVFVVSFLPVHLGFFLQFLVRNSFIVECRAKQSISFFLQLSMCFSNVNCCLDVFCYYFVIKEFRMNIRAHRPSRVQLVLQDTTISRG

Cannabinoid receptor 2 [11] = target: T6, Cannabinoid receptor 2; test: SAR analysis of agonists of the Cannabinoid Receptor 2 using an Image-Based Assay - Set 3. [Related pubchem assays (depositor defined):AID2013, AID2026]; assay type: functional
[12] = target: T7, G-protein coupled receptor 35; test: SAR analysis of Agonists of the GPR35 Receptor using an Image-Based Assay - Set 4. [Related pubchem assays (depositor defined):AID2013, AID2026]; assay type: functional

## CC(=O)N1N=C(c2ccccc2)CC1c1cn(Cc2ccccc2)c2ccccc12 (configuration not stated)
[1]
  EC50: 1.2 µM (active)
[2]
  IC50: 2 µM (active)
[3]
  IC50: 0.748 µM (active)

## CCCCCCCn1c(=N)n(CC(=O)c2ccco2)c2ccccc21
[4]
  EC50: > 100 µM (inactive)

## O=C1C(C2=C(O)c3ccccc3C2=O)=Nc2ccccc21
Hexokinase HKDC1
  EC50: 24.7 µM (inactive)
Genome polyprotein
  IC50: 56.9 µM (active)
[5]
  IC50: 1.31 µM (active)
Protein RecA
  EC50: 1.6 µM (active)
Hexokinase-1
  EC50: 37.1 µM (inactive)
Vero
  CC50: 26.6 µM (active)

## Cc1nc(N2CCN(C(=O)NCc3ccccc3)CC2)c2c3c(sc2n1)CCCC3
Cannabinoid receptor 1 [6]
  EC50: > 32 µM (inactive)
Cannabinoid receptor 2 [7]
  IC50: > 15.2 µM (inactive)
Cannabinoid receptor 1 [8]
  IC50: 6.66 µM (active)
[9]
  IC50: > 32 µM (inactive)
[10]
  IC50: 13 µM (inactive)
Cannabinoid receptor 2 [11]
  EC50: > 32 µM (inactive)
[12]
  EC50: > 32 µM (inactive)
